Laboratory results as given in publication PMC10779433, “Bidirectional Allosteric Coupling between PIP2 Binding and the Pore of the Oncochannel TRPV6” (International Journal of Molecular Sciences, 2024).
No end group written: not given here. *: point of attachment. Palmitoyl = CCCCCCCCCCCCCCCC(=O)*

Legend:
[1] = molecular target: T1, TRPV6 WT (Homo sapiens, UniProt Q9H1D0); experiment: Fura-2 Ca2+ imaging, TRPV6 WT; assay type: cell-based; conditions: HEK293 cells; 20 μM control peptide; effect likely attributable to ongoing channel inactivation
T1 construct: expressed in transfected cells; host or cells: HEK293 cells, transient transfection
T1 sequence (Q9H1D0 41-765 limits assumed): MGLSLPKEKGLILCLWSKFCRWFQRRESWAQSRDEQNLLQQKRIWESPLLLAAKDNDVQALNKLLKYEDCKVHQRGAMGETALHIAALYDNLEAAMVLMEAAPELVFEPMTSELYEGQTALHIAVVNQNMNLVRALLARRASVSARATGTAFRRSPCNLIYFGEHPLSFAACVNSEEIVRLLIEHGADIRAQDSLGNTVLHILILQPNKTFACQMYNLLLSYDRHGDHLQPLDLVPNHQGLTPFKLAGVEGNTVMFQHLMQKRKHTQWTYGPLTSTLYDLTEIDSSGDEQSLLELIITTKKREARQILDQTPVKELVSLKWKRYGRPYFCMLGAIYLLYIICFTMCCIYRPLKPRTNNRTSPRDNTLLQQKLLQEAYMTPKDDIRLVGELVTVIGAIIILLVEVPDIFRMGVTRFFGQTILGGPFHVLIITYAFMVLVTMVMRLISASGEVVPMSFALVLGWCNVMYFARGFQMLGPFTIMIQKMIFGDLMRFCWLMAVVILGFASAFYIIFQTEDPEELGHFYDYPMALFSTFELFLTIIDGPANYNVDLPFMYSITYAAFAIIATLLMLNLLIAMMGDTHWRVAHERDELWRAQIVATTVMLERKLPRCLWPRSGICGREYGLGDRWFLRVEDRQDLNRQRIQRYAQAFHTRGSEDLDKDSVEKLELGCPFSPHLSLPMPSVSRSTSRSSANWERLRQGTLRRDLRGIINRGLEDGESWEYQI

[2] = system: TRPV6; conditions: physiologically relevant concentrations; ref [19],[59]; cited from earlier work

Substance	decrease in cytosolic Ca2+ level (in words) [1]	activation of TRPV6 [2]
Palmitoyl-HAQKHFEAAA [control peptide, palmitoylated peptide having four of the basic residues of the pal-PIP2 peptide replaced by alanine]	slow, continuous reduction	
phosphatidylinositol-4-phosphate [PI(4)P]		does not activate TRPV6
